Columns and labels:
Format in all cases: in vivo, mouse
VSMC phenotypic markers = test: expression of VSMC phenotypic markers in aortas of treated Fbn1C1039G/+ mice; conditions: aortas of Fbn1C1039G/+ mice treated from two to six months
Procedure: Total RNA was prepared from tissue or primary cells using RNeasy kit (Qiagen) following the manufacturer's protocol. The cDNA was prepared by reverse transcription, and expression of SMC contractile genes were analyzed by qRT-PCR on SYBR green system (Applied Biosystem, Foster city, CA). 50 pL of plasma from wild-type or Fbn1cl° 39G1+ mice were used to prepare total RNA as mentioned above. Expression results were analyzed by the ddCT method and GAPDH (encoding glyceraldehyde-3-phosphate dehydrogenase) was used as a housekeeping gene. Fold change were calculated by taking the average over all the control samples as the baseline. […] The supernatant was removed and the vesicular fraction was resuspended with 750 pL of TRizol reagent followed by RNA extraction using the RNeasy kit (Qiagen) according to the manufacturer's protocol. Cohorts of 8-week-old wild-type or Fbn1cw3gGi+ mice were treated with oral administration in drinking water of either Losartan or GSK343 for 20 weeks (FIG. 5). […] Then 200 mL of drinking water was supplemented with 250 pL of GSK343 stock solution. Control group for either drug treatment was given with equal volumes of sterile water. Bottles containing either losartan or GSKS343 were replaced with fresh water supplied with drugs every 3 days. For experiments described in FIG. 5A-5C, 16-week-old wild-type or Fbnicw3gGi+ mice were treated for 8 weeks and as described above. Additionally, a group of mice were given a combination of both losartan and GSK343 at the same concentrations as of other single drug treatments. Aortic dimensions were monitored monthly by echocardiograms as mentioned above.

[1] = tested on: aortic wall of Fbn1C1039G/+ mice; test: histologic analysis of aortas of treated Fbn1C1039G/+ mice; conditions: aortas of Fbn1C1039G/+ mice treated from two to six months
Procedure: (§1) Latex was injected into the left ventricular apex under low pressure until it was visible in the femoral artery. Animals were then fixed in Formalin (10%) for 24 hours before transfer to 70% ethanol for dissection and storage. Aortas were then removed from the animals or dissected in situ for photography prior to paraffinization and sectioning (10 pM). Slides were produced for tissue staining or stained with standard stains including H&E staining, collagen deposition (Trichrome Stain (Masson) Kit, Sigma, USA), elastin (Verhoeff-Van Gieson, Thermo Scientific, MI, USA) or F-actin (ActinGreen™ 488 ReadyProbes, ThermoFisher Scientific, USA) for quantitative analysis. Elastin integrity score was rated by blinded observers and graded on an arbitrary scale of 5 (indicating high quality elastic fiber) to 1 (indicating severe elastin fragmentation). For nuclear staining aortas from human and mice were cryosectioned using OCT standard protocol as described previously (Fischer et al., 2008). Cohorts of 8-week-old wild-type or Fbn1cw3gGi+ mice were treated with oral administration in drinking water of either Losartan or GSK343 for 20 weeks (FIG. 5). […] Then 200 mL of drinking water was supplemented with 250 pL of GSK343 stock solution. Control group for either drug treatment was given with equal volumes of sterile water. Bottles containing either losartan or GSKS343 were replaced with fresh water supplied with drugs every 3 days. For experiments described in FIG. 5A-5C, 16-week-old wild-type or Fbnicw3gGi+ mice were treated for 8 weeks and as described above. Additionally, a group of mice were given a combination of both losartan and GSK343 at the same concentrations as of other single drug treatments. Aortic dimensions were monitored monthly by echocardiograms as mentioned above.

H3K27me3 = H3K27me3 staining in aortas of treated Fbn1C1039G/+ mice; conditions: compared to control or losartan treated mice
Procedure: as §1, with “Control group for either drug treatment was given with equal volumes of sterile water. Bottles containing either losartan or GSKS343 were replaced with fresh water supplied with drugs every 3 days. For experiments described in FIG. 5A-5C, 16-week-old wild-type or Fbnicw3gGi+ mice were treated for 8 weeks and as described above. Additionally, a group of mice were given a combination of both losartan and GSK343 at the same concentrations as of other single drug treatments.” left out

TGF-β signaling = test: TGF-β activity by phosphorylation of Smad2 or Erk1 in aortas of treated mice; conditions: aortic tissue of treated Fbn1C1039G/+ mice
Procedure: as §1, with “Control group for either drug treatment was given with equal volumes of sterile water. Bottles containing either losartan or GSKS343 were replaced with fresh water supplied with drugs every 3 days. For experiments described in FIG. 5A-5C, 16-week-old wild-type or Fbnicw3gGi+ mice were treated for 8 weeks and as described above. Additionally, a group of mice were given a combination of both losartan and GSK343 at the same concentrations as of other single drug treatments.” left out

[2] = tested on: aortic aneurysm in Fbn1C1039G/+ mice; test: experimental aortic aneurysm in Fbn1C1039G/+ mice: echocardiographic aortic dimensions; conditions: Fbn1C1039G/+ mice treated from two to six months of life, drinking water
From the text: Dimensions from each animal represent averages of measurements made on still frames in systole of the maximal internal diameter of the aortic valve annulus, aortic sinuses, sinotubular junction, or ascending aorta by a cardiologist blinded to genotype. The aorta was imaged using a standard parasternal long axis view. Based on historic controls, the mean diameter of the wild type aortic root at 4 months of life is 1.73+/-0.2 mm while in our disease model (Fbn1ci°[…]/+) the mean diameter is 2.15+/-0.3 mm. […] Nair hair removal cream was used on all mice the day prior to echocardiograms. All echocardiograms were performed on awake, unsedated mice using the Visualsonics Vevo imaging system and a 30 MHz transducer. All CT images were acquired using an Inveon small animal micro CT (Siemens Medical Solutions Inc., Malven, Pa.). All mice received intravenous iodinated contrast (Isovue-370, Bracco Diagnostic Inc.) at 20 pL/min during the scan. […] Images were visualized and analyzed in OsiriX software. Cohorts of 8-week-old wild-type or Fbn1cw3gGi+ mice were treated with oral administration in drinking water of either Losartan or GSK343 for 20 weeks (FIG. 5). […] Then 200 mL of drinking water was supplemented with 250 pL of GSK343 stock solution. […] Aortic dimensions were monitored monthly by echocardiograms as mentioned above.

SM22a = test: immunostaining of SM22a protein in aortas of treated Fbn1C1039G/+ mice; conditions: compared to control Fbn1C1039G/+ mice
Procedure: as §1, with “Control group for either drug treatment was given with equal volumes of sterile water. Bottles containing either losartan or GSKS343 were replaced with fresh water supplied with drugs every 3 days. For experiments described in FIG. 5A-5C, 16-week-old wild-type or Fbnicw3gGi+ mice were treated for 8 weeks and as described above. Additionally, a group of mice were given a combination of both losartan and GSK343 at the same concentrations as of other single drug treatments.” left out

CCCCc1nc(Cl)c(CO)n1Cc1ccc(-c2ccccc2-c2nnn[n-]2)cc1.[K+] [Losartan]
synthetic markers (Col1a1, Col3a1, Gja1, Mmp2) (VSMC phenotypic markers): better ability to decrease | aortic architecture and filamentous actin content [1]: improvement | elastin integrity [1]: improve elastin integrity overall | H3K27me3 staining / aortic medial H3K27me3 modifications (H3K27me3): did not | TGF-β activity as assessed by phosphorylation of Smad2 or Erk1 protein (TGF-β signaling): reduced | aortic dimensions [2]: ability to improve aortic dimensions | SM22a protein expression (immunostaining of aortas) (SM22a): recovery of SM22a protein expression

Source: patent US11938129B2, “Methods and compositions for the treatment of vascular disease” (THE GENERAL HOSPITAL CORPORATION, priority 2018, dated 2024)
